Source: US5114920A, “BU-3292T antibiotics” (priority 1988, dated 1992)
≈ marks a conversion by molar mass, not a printed value. Starred links: 1 amine or outer side, 2 acyl side, 3 side chain; linkers in the order of their positions; H or OH if unused. Positions of bridges follow the written chain, without caps; N, C: chain ends. Non-standard residues stand in square brackets, D forms with d. Residues, ends and D or L forms follow the SMILES beside them. *: point of attachment. X2 = CC1CCC(C(=O)[*:2])N1[*:1]; NMeV = CN[CH](C(=O)O)C(C)C; X1 = Cc1ccc(C(=O)*)c(N)c1O; Sar = CNCC(=O)O

Experiments:
[1] = test system: Staphylococcus aureus smith; test: Antimicrobial activity, serial two-fold agar dilution method; type: cell-based; details: Nutrient agar
Description: (§1) The antimicrobial activity of BU-3292T A and B was determined against aerobic and anaerobic bacteria and fungi by a serial two-fold agar dilution method. BU-3292T A and B are active against aerobic gram-positive bacteria, and weakly active against anaerobic gram-negative bacteria and fungi.

[2] = test system: Staphylococcus aureus 209P; test: as above; type: cell-based; details: Nutrient agar
Description: as §1

[3] = test system: Propionibacterium acnes A21933; test: as above; type: cell-based; details: GAM agar
Description: as §1

[4] = test system: Streptococcus pyogenes A20201; test: as above; type: cell-based; details: Nutrient agar
Description: as §1

Escherichia coli NIHJ = test: as above; type: cell-based; details: Nutrient agar
Description: as §1

[5] = test system: Staphylococcus epidermidis D153; test: as above; type: cell-based; details: Nutrient agar
Description: as §1

[6] = test system: Candida albicans IAM 4888; test: as above; type: cell-based; details: Sabouraud dextrose agar
Description: as §1

Proteus mirabilis A9554 = test: as above; type: cell-based; details: Nutrient agar
Description: as §1

[7] = test system: Cryptococcus neoformans IAM 4519; test: as above; type: cell-based; details: Sabouraud dextrose agar
Description: as §1

[8] = test system: Bacillus subtilis PCI-219; test: as above; type: cell-based; details: Nutrient agar
Description: as §1

[9] = test system: Propionibacterium anaerobius A21905; test: as above; type: cell-based; details: GAM agar
Description: as §1

[10] = test system: Klebsiella pneumoniae D11; test: as above; type: cell-based; details: Nutrient agar
Description: as §1

Micrococcus luteus 1001 = test: as above; type: cell-based; details: Nutrient agar
Description: as §1

[11] = test system: Trichophyton mentagrophytes D155; test: as above; type: cell-based; details: Sabouraud dextrose agar
Description: as §1

[12] = test system: Pseudomonas aeruginosa A9930; test: as above; type: cell-based; details: Nutrient agar
Description: as §1

[13] = test system: Streptococcus faecalis A9612; test: as above; type: cell-based; details: Nutrient agar
Description: as §1

[14] = test system: Aspergillus fumigatus IAM 2530; test: as above; type: cell-based; details: Sabouraud dextrose agar
Description: as §1

[15] = test system: Bacteroides fragilis A22693; test: as above; type: cell-based; details: GAM agar
Description: as §1

[16] = test system: Clostridium difficile A21675; test: as above; type: cell-based; details: GAM agar
Description: as §1

Mucor spinosus IFO 5317 = test: as above; type: cell-based
Description: as §1

Proteus vulgalis A9436 = test: as above; type: cell-based; details: Nutrient agar
Description: as §1

[17] = test system: Fusarium moniliforme A2284; test: as above; type: cell-based; details: Sabouraud dextrose agar
Description: as §1

[18] = test system: lymphocytic leukemia P388; test: Antitumor activity against P388 leukemia (ip); type: in vivo, mice; details: for MST (Median survival time) / T/C: QD × 3, ip
Description: (§2) BU-3292T components A and B were tested for in vitro cytotoxicity against murine and human tumor cells and for in vivo antitumor activity in mice. Actinomycin D was used as a reference compound in both in vitro and in vivo experiments. B16-F10 (murine melanoma) and Moser (human colorectal carcinoma) cells were grown to the logarithmic phase in enriched Eagle minimum essential medium (MEM) supplemented with fetal calf serum (FCS, 10%) and kanamycin (60 mcg/ml), harvested and inoculated into wells of a 96-well microtiter plate with test materials at the concentrations of 3.0×10^4 and 6.0×10^4 cells/ml, respectively. They were incubated at 37° C. in humidified atmosphere of 5% CO2 and 95% air for 72 hours. The cytotoxic activity was determined colorimetrically at 540 nm after staining viable cells with neutral red. […] Inhibitory effects of BU-3292T component A on macromolecule (DNA, RNA and protein) synthesis were determined in vitro. Cultured L1210 murine leukemia cells (5×10^5 cells/ml) were incubated with test materials at 37° C. for 15 minutes and then further incubated for 60 minutes after the addition of labelled precursor, ^3 H-thymidine, ^14 C-uridine or ^3 H-leucine, into the cultured mixtures. After washing with chilled 5% trichloroacetic acid solution, the radioactivity incorporated into the acid-insoluble fraction of the tumor cells was determined in a liquid scintillation counter. […] In vivo antitumor activities of BU-3292T components A and B were tested in tumor-bearing female CDF mice. After the intraperitoneal implantation of diluted ascitic fluid with 1.0 ×10^6 lymphocytic leukemia P388 cells into the mice, test compounds were administered intraperitoneally once a day on days 1, 2 and 3 (QD×3).

[19] = test system: anaerobic gram-negative bacteria and fungi; test: Antimicrobial activity, agar dilution, summary in words; type: cell-based; details: summary of Table 6
Description: as §1

[20] = test system: aerobic gram-positive bacteria; test: as above; type: cell-based; details: summary of Table 6
Description: as §1

gram-negative bacteria = test: as above; type: cell-based; details: summary of Table 6
Description: as §1

[21] = test system: Clostridium perfringens A9635; type: cell-based; details: GAM agar
[22] = Body weight change in P388-bearing mice; details: QD × 3, ip
Description: as §2

Solubility = type: physicochemical
Excerpt: BU-3292T A is isolated as a white amorphous powder, while BU-3292T B is an orange-red powder. […] The compounds give positive responses to iodine and Rydone-Smith reagents, but negative responses to Sakaguchi, ferric chloride, ninhydrin and anthrone reagents. […] The IR spectra of BU-3292T A and B are illustrated in FIGS. 1 and 2, respectively.

[23] = test system: Moser (human colorectal carcinoma) cells; test: In vitro cytotoxicity, neutral red staining; type: cell-based; details: 72 hours
Description: as §2

[24] = test system: B16-F10 (murine melanoma) cells; test: In vitro cytotoxicity, neutral red staining; type: cell-based
Description: as §2

[25] = test system: RNA synthesis in L1210 leukemia cells; test: Inhibition of macromolecule synthesis, 14C-uridine incorporation; type: cell-based, murine
Description: as §2

[26] = test system: DNA synthesis in L1210 leukemia cells; test: Inhibition of macromolecule synthesis, 3H-thymidine incorporation; type: cell-based, murine
Description: BU-3292T components A and B were tested for in vitro cytotoxicity against murine and human tumor cells and for in vivo antitumor activity in mice. Actinomycin D was used as a reference compound in both in vitro and in vivo experiments. B16-F10 (murine melanoma) and Moser (human colorectal carcinoma) cells were grown to the logarithmic phase in enriched Eagle minimum essential medium (MEM) supplemented with fetal calf serum (FCS, 10%) and kanamycin (60 mcg/ml), harvested and inoculated into wells of a 96-well microtiter plate with test materials at the concentrations of 3.0×10^4 and 6.0×10^4 cells/ml, respectively. They were incubated at 37° C. in humidified atmosphere of 5% CO2 and 95% air for 72 hours. The cytotoxic activity was determined colorimetrically at 540 nm after staining viable cells with neutral red. […] Inhibitory effects of BU-3292T component A on macromolecule (DNA, RNA and protein) synthesis were determined in vitro. […] After washing with chilled 5% trichloroacetic acid solution, the radioactivity incorporated into the acid-insoluble fraction of the tumor cells was determined in a liquid scintillation counter. […]

[27] = test system: Protein synthesis in L1210 leukemia cells; test: Inhibition of macromolecule synthesis, 3H-leucine incorporation; type: cell-based, murine
Description: as §2

With Cc1ccc(C(=O)NC2C(=O)NC(C(C)C)C(=O)N3C(C)CCC3C(=O)N(C)CC(=O)N(C)C(C(C)C)C(=O)OC2C)c(N)c1O (stereo not shown) [BU-3292T A] (X1-TV[X2][Sar][NMeV]; ester 1-C; configuration not given here) as the molecule, how does the MIC [1] read?
Its MIC is 1.6 µg/mL (≈ 2.48 µM).

What about the MIC [2] of the same molecule?
The MIC was 1.6 µg/mL (≈ 2.48 µM).

What about the MIC [3] of the same molecule?
Its MIC is 100 µg/mL (≈ 155 µM).

And the MIC [4]?
Its MIC is 1.6 µg/mL (≈ 2.48 µM).

And the MIC (Escherichia coli NIHJ)?
The MIC was > 100 µg/mL.

And the MIC [5]?
Its MIC is 1.6 µg/mL (≈ 2.48 µM).

What about the MIC [6] of the same molecule?
The MIC was > 100 µg/mL.

What about the MIC (Proteus mirabilis A9554) of the same molecule?
Its MIC is > 100 µg/mL.

And the MIC [7]?
Its MIC is 100 µg/mL (≈ 155 µM).

What about the MIC [8] of the same molecule?
Its MIC is 0.4 µg/mL (≈ 0.62 µM).

And the MIC [9]?
Its MIC is 100 µg/mL (≈ 155 µM).

What about the MIC [10] of the same molecule?
The MIC was > 100 µg/mL.

What about the MIC (Micrococcus luteus 1001) of the same molecule?
The MIC was 0.4 µg/mL (≈ 0.62 µM).

And the MIC [11]?
The MIC was > 100 µg/mL.

What about the MIC [12] of the same molecule?
The MIC was > 100 µg/mL.

What about the MIC [13] of the same molecule?
The MIC was 0.8 µg/mL (≈ 1.24 µM).

And the MIC [14]?
The MIC was > 100 µg/mL.

What about the MIC [15] of the same molecule?
Its MIC is > 100 µg/mL.

What about the MIC [16] of the same molecule?
Its MIC is > 100 µg/mL.

And the MIC (Mucor spinosus IFO 5317; Mucor spinosus IFO 5317, Sabouraud dextrose agar)?
The MIC was 12.5 µg/mL (≈ 19.4 µM).

And the MIC (Mucor spinosus IFO 5317; in vitro against Mucor spinosus IF05317)?
The MIC was 12.5 µg/mL (≈ 19.4 µM).

What about the MIC (Proteus vulgalis A9436) of the same molecule?
The MIC was > 100 µg/mL.

And the MIC [17]?
Its MIC is > 100 µg/mL.

What about the “MST (Median survival time)” value ([18]; 0.03 mg/kg/day) of the same molecule?
Its value is 11.0 days.

And the T/C ([18]; 0.03 mg/kg/day)?
The T/C was 110%.

And the “MST (Median survival time)” value ([18]; 0.1 mg/kg/day)?
The value was 11.0 days.

And the T/C ([18]; 0.1 mg/kg/day)?
Its T/C is 110%.

What about the “MST (Median survival time)” value ([18]; 0.3 mg/kg/day) of the same molecule?
Its value is 12.0 days.

What about the T/C ([18]; 0.3 mg/kg/day) of the same molecule?
The T/C was 120%.

What about the “MST (Median survival time)” value ([18]; 1 mg/kg/day) of the same molecule?
Its value is 13.0 days.

What about the T/C ([18]; 1 mg/kg/day) of the same molecule?
The T/C was 130%.

And the “MST (Median survival time)” value ([18]; 3 mg/kg/day)?
The value was 14.0 days.

What about the T/C ([18]; 3 mg/kg/day) of the same molecule?
The T/C was 140%.

What about the “MST (Median survival time)” value ([18]; 10 mg/kg/day) of the same molecule?
The value was 16.0 days.

And the T/C ([18]; 10 mg/kg/day)?
Its T/C is 160%.

And the “MST (Median survival time)” value ([18]; 30 mg/kg/day)?
Its value is “Tox”.

What about the T/C ([18]; 30 mg/kg/day) of the same molecule?
The T/C was “Tox”.

What about the “maximum T/C value” ([18]; anti-P388 leukemic activity, QD×3, ip) of the same molecule?
Its value is 160%.

What about the “activity against anaerobic gram-negative bacteria and fungi” value [19] of the same molecule?
Its value is “weakly active”.

What about the “activity against aerobic gram-positive bacteria” value [20] of the same molecule?
Its value is “active”.

What about the “activity against gram-negative bacteria” value (gram-negative bacteria) of the same molecule?
Its value is “inactive”.

And the MIC [21]?
Its MIC is 100 µg/mL (≈ 155 µM).

And the “Body weight change on day 4” value ([22]; 0.03 mg/kg/day)?
The value was “+1.3 g”.

What about the “Body weight change on day 4” value ([22]; 0.1 mg/kg/day) of the same molecule?
Its value is “+1.3 g”.

And the “Body weight change on day 4” value ([22]; 0.3 mg/kg/day)?
Its value is “+1.3 g”.

What about the “Body weight change on day 4” value ([22]; 1 mg/kg/day) of the same molecule?
Its value is “+0.5 g”.

And the “Body weight change on day 4” value ([22]; 3 mg/kg/day)?
Its value is “+0.3 g”.

And the “Body weight change on day 4” value ([22]; 10 mg/kg/day)?
Its value is -3.0 g.

And the “solubility in dimethyl sulfoxide, dimethylformamide, methanol, ethyl acetate and chloroform” value (Solubility; dimethyl sulfoxide, dimethylformamide, methanol, ethyl acetate, chloroform)?
The value was “readily soluble”.

What about the “solubility in water and other organic solvents” value (Solubility; water and other organic solvents) of the same molecule?
Its value is “insoluble”.

And the IC50 [23]?
Its IC50 is 0.09 µg/mL (≈ 0.14 µM).

And the IC50 ([24]; B16-F10, 72 hours)?
The IC50 was 0.007 µg/mL (≈ 0.0109 µM).

And the “times stronger against B16-F10 cells than against Moser cells” value ([24]; cytotoxic activity, B16-F10 versus Moser)?
The value was “approximately 10 times”.

What about the “inhibited RNA synthesis times more than DNA synthesis” value ([25]; L1210 cells, RNA versus DNA synthesis) of the same molecule?
The value was “approximately 300 times”.

And the “IC50 RNA” value ([25]; L1210 leukemia cells, 14C-uridine)?
Its value is 0.23 µg/mL (≈ 0.357 µM).

What about the “IC50 DNA” value [26] of the same molecule?
The value was 80 µg/mL (≈ 124 µM).

And the “inhibitory effect on protein synthesis” value ([27]; L1210 cells, at 100 mcg/ml, the highest concentration tested)?
The value was “no inhibitory effect”.

What about the “IC50 Protein” value ([27]; L1210 leukemia cells, 3H-leucine) of the same molecule?
The value was > 100 µg/mL.
